This is an account of results in patent US9481648B2, “Kinase inhibitors” (Respivert Limited, priority 2013, dated 2016).

The target of one experiment is GSK 3α (Homo sapiens (Human), UniProt P49840). In words: GSK 3α enzyme inhibition (FRET, Z-LYTE; Method 2). The format is biochemical. Conditions: read-out: IC50 Values for Enzyme Inhibition GSK3α. Summed up: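 Z-LYTE FRET assay: GSK3-α (500 ng/mL stock) preincubated 105 min at RT with compound at 10, 1, 0.1 or 0.01 μg/mL stock. FRET peptide (8 μM stock) and ATP (40 μM stock) were then added for 1 h, followed by protease development for 1 h. Phosphorylation was read as coumarin/fluorescein emission ratio.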
GSK 3α, sequence (P49840 whole entry): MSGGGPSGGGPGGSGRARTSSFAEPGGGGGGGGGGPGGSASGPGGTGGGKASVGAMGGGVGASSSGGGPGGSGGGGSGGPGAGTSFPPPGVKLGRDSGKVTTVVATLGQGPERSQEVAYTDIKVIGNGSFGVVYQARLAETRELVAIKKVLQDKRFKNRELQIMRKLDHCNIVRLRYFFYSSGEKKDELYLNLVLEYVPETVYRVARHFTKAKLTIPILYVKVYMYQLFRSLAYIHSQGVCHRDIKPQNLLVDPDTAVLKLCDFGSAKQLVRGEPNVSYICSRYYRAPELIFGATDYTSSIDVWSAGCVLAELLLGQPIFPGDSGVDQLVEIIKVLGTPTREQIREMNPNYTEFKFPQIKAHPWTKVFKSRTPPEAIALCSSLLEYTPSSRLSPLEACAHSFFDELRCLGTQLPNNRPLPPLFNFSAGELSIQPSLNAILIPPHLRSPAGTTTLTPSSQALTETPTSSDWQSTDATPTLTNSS

The next experiment deals with PBMCs. In words: LPS-induced TNFα/IL-8 release in PBMC cells (assay b). The conditions noted are these: LPS-stimulated, read-out: IC50 Values for Inhibition of Cytokine Release PBMCs IL-8. It counts as cell-based, human. The protocol: Peripheral blood mononuclear cells (PBMCs) from healthy subjects are separated from whole blood using a density gradient (Lymphoprep, Axis-Shield Healthcare). The PBMCs are seeded in 96 well plates and treated with compounds at the desired concentration for 2 hours before addition of 1 ng/mL LPS (Escherichia Coli 0111:B4 from Sigma Aldrich) for 24 hours under normal tissue culture conditions (37° C., 5% CO2). The supernatant is harvested for determination of IL-8 and TNFα concentrations by sandwich ELISA (Duo-set, R&D systems) and read on the fluorescence microplate reader (Varioskan® Flash, ThermoFisher Scientific).

Structures are written as SMILES. Read-outs that look alike come from different tables or passages of the source.

Take `COc1c(NC(=O)Nc2ccc(Oc3ccnc(Nc4ccccc4)c3)c3ccccc23)cc(C(C)(C)C)cc1C(=O)N[C@H]1CCOC1` [84(d), 3-[[4-[(2-Anilino-4-pyridyl)oxy]-1-naphthyl]carbamoylamino]-5-tert-butyl-2-methoxy-N-[(3S)-tetrahydrofuran-3-yl]benzamide]: the IC50 at GSK 3α came to 6280 nM; in the experiment with PBMCs (Homo sapiens, PBMC), 11.5 nM.

In the case of `COCCOCCOCCOCCNC(=O)c1cc(Nc2cc(Oc3ccc(NC(=O)Nc4cc(C(C)(C)C)cc(NS(C)(=O)=O)c4OC)c4ccccc34)ccn2)cc(OC)c1` [Example 85(v), 3-[[4-[[4-[[5-tert-Butyl-3-(methanesulfonamido)-2-methoxyphenyl]-carbamoylamino]-1-naphthyl]oxy]-2-pyridyl]amino]-5-methoxy-N-[2-[2-[2-(2-methoxyethoxy)ethoxy]ethoxy]-ethyl]benzamide], the IC50 was found to be 2520 nM at GSK 3α and 0.4 nM in the experiment with PBMCs.
